Measured values published in the supplement of paper PMC4862054.

Test system: MDA-MB-231
Test: normalised response (% of control), CellTox Green; higher = less cell death (100 = DMSO, 0 = benzethonium chloride kill control)
Conditions: incubation time: 72 h
Outline: (§1)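 Values are normalised signals, each belonging to one concentration of the series. Breast cancer cells (20 µl suspension) were seeded into 384-well plates with compound at 5 concentrations in 10-fold steps over a compound-specific 10,000-fold range and incubated 72 h. Readouts were CellTox Green fluorescence (485/520 nm), then CellTiter-Glo luminescence after 10 min at room temperature, with each plate set to 0.1 % DMSO as 100 and a positive kill control as 0.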

Point of comparison: `CC(=O)c1c(C)c2cnc(Nc3ccc(N4CCNCC4)cn3)nc2n(C2CCCC2)c1=O` [Palbociclib] (100 nM), normalised response 103%. Against it:
- CC(=O)N(O)CCCCCNC(=O)CCC(=O)N(O)CCCCCNC(=O)CCC(=O)N(O)CCCCCN [Deferoxamine] (100 nM) — lower, 78.7%
- CC1(C)CNc2cc(NC(=O)c3cccnc3NCc3ccncc3)ccc21 [Motesanib] (100 nM) — lower, 101%
- CC[C@@H]1C(=O)OC[C@@H]1Cc1cncn1C [Pilocarpine] (400 nM) — higher, 106%

Test system: MDA-MB-436
Test: as above
Conditions: incubation time: 72 h
Outline: as §1

Point of comparison: `Cc1sc2c(c1C)C(c1ccc(Cl)cc1)=N[C@@H](CC(=O)OC(C)(C)C)c1nnc(C)n1-2` [(+)JQ1] (100 nM), normalised response 68.7%. Against it:
- Oc1ncnc2[nH]ncc12 [Allopurinol] (100 nM) — higher, 102%
- CC1=C2C[C@H]3[C@@H](CC=C4C[C@@H](O)CC[C@@]43C)[C@@H]2CC[C@]12O[C@@H]1C[C@H](C)CN[C@H]1[C@H]2C [Cyclopamine] (100 nM) — higher, 86%
- CC(=O)N(O)CCCCCNC(=O)CCC(=O)N(O)CCCCCNC(=O)CCC(=O)N(O)CCCCCN [Deferoxamine] (100 nM) — higher, 95.5%
- C[C@]12CC[C@@H]3c4ccc(OC(=O)N(CCCl)CCCl)cc4CC[C@H]3[C@@H]1CC[C@@H]2O [Estramustine] (100 nM) — higher, 83.2%
- CC1(C)CNc2cc(NC(=O)c3cccnc3NCc3ccncc3)ccc21 [Motesanib] (100 nM) — higher, 91.1%
- CC(=O)c1c(C)c2cnc(Nc3ccc(N4CCNCC4)cn3)nc2n(C2CCCC2)c1=O [Palbociclib] (100 nM) — higher, 77%
- CC[C@@H]1C(=O)OC[C@@H]1Cc1cncn1C [Pilocarpine] (400 nM) — higher, 70%

Test system: Hs578T
Test: as above
Conditions: incubation time: 72 h
Outline: as §1

Point of comparison: `CC1=C2C[C@H]3[C@@H](CC=C4C[C@@H](O)CC[C@@]43C)[C@@H]2CC[C@]12O[C@@H]1C[C@H](C)CN[C@H]1[C@H]2C` [Cyclopamine] (100 nM), normalised response 95.4%. Against it:
- Cc1sc2c(c1C)C(c1ccc(Cl)cc1)=N[C@@H](CC(=O)OC(C)(C)C)c1nnc(C)n1-2 [(+)JQ1] (100 nM) — higher, 104%
- Oc1ncnc2[nH]ncc12 [Allopurinol] (100 nM) — higher, 103%
- CC(=O)N(O)CCCCCNC(=O)CCC(=O)N(O)CCCCCNC(=O)CCC(=O)N(O)CCCCCN [Deferoxamine] (100 nM) — lower, 94.9%
- CC(=O)c1c(C)c2cnc(Nc3ccc(N4CCNCC4)cn3)nc2n(C2CCCC2)c1=O [Palbociclib] (100 nM) — higher, 104%
- COc1cc(F)c(F)c(Nc2ccc(I)cc2F)c1NS(=O)(=O)C1(C[C@H](O)CO)CC1 [Refametinib] (100 nM) — higher, 103%

Test system: MCF-10A
Test: as above
Conditions: incubation time: 72 h
Outline: as §1

Point of comparison: `Oc1ncnc2[nH]ncc12` [Allopurinol] (100 nM), normalised response 89.3%. Against it:
- Cc1sc2c(c1C)C(c1ccc(Cl)cc1)=N[C@@H](CC(=O)OC(C)(C)C)c1nnc(C)n1-2 [(+)JQ1] (100 nM) — higher, 111%
- CC1=C2C[C@H]3[C@@H](CC=C4C[C@@H](O)CC[C@@]43C)[C@@H]2CC[C@]12O[C@@H]1C[C@H](C)CN[C@H]1[C@H]2C [Cyclopamine] (100 nM) — higher, 94.2%
- CC(=O)N(O)CCCCCNC(=O)CCC(=O)N(O)CCCCCNC(=O)CCC(=O)N(O)CCCCCN [Deferoxamine] (100 nM) — higher, 90.1%
- C[C@]12CC[C@@H]3c4ccc(OC(=O)N(CCCl)CCCl)cc4CC[C@H]3[C@@H]1CC[C@@H]2O [Estramustine] (100 nM) — lower, 83.8%
- CC1(C)CNc2cc(NC(=O)c3cccnc3NCc3ccncc3)ccc21 [Motesanib] (100 nM) — higher, 100%
- CC[C@@H]1C(=O)OC[C@@H]1Cc1cncn1C [Pilocarpine] (400 nM) — higher, 98.6%
- COc1cc(F)c(F)c(Nc2ccc(I)cc2F)c1NS(=O)(=O)C1(C[C@H](O)CO)CC1 [Refametinib] (100 nM) — higher, 93.4%

Test system: CAL-51
Test: as above
Conditions: incubation time: 72 h
Outline: as §1

Point of comparison: `CC[C@@H]1C(=O)OC[C@@H]1Cc1cncn1C` [Pilocarpine] (400 nM), normalised response 91.1%. Against it:
- Cc1sc2c(c1C)C(c1ccc(Cl)cc1)=N[C@@H](CC(=O)OC(C)(C)C)c1nnc(C)n1-2 [(+)JQ1] (100 nM) — higher, 101%
- Oc1ncnc2[nH]ncc12 [Allopurinol] (100 nM) — higher, 98.8%
- CC1=C2C[C@H]3[C@@H](CC=C4C[C@@H](O)CC[C@@]43C)[C@@H]2CC[C@]12O[C@@H]1C[C@H](C)CN[C@H]1[C@H]2C [Cyclopamine] (100 nM) — lower, 85.7%
- CC(=O)N(O)CCCCCNC(=O)CCC(=O)N(O)CCCCCNC(=O)CCC(=O)N(O)CCCCCN [Deferoxamine] (100 nM) — higher, 104%
- C[C@]12CC[C@@H]3c4ccc(OC(=O)N(CCCl)CCCl)cc4CC[C@H]3[C@@H]1CC[C@@H]2O [Estramustine] (100 nM) — lower, 81%
- CC1(C)CNc2cc(NC(=O)c3cccnc3NCc3ccncc3)ccc21 [Motesanib] (100 nM) — higher, 107%
- CC(=O)c1c(C)c2cnc(Nc3ccc(N4CCNCC4)cn3)nc2n(C2CCCC2)c1=O [Palbociclib] (100 nM) — higher, 110%
- COc1cc(F)c(F)c(Nc2ccc(I)cc2F)c1NS(=O)(=O)C1(C[C@H](O)CO)CC1 [Refametinib] (100 nM) — lower, 79.7%

Test system: CAL-120
Test: as above
Conditions: incubation time: 72 h
Outline: as §1

Point of comparison: `CC[C@@H]1C(=O)OC[C@@H]1Cc1cncn1C` [Pilocarpine] (400 nM), normalised response 98.8%. Against it:
- Cc1sc2c(c1C)C(c1ccc(Cl)cc1)=N[C@@H](CC(=O)OC(C)(C)C)c1nnc(C)n1-2 [(+)JQ1] (100 nM) — lower, 82.9%
- Oc1ncnc2[nH]ncc12 [Allopurinol] (100 nM) — higher, 103%
- CC1=C2C[C@H]3[C@@H](CC=C4C[C@@H](O)CC[C@@]43C)[C@@H]2CC[C@]12O[C@@H]1C[C@H](C)CN[C@H]1[C@H]2C [Cyclopamine] (100 nM) — higher, 99.6%
- CC(=O)N(O)CCCCCNC(=O)CCC(=O)N(O)CCCCCNC(=O)CCC(=O)N(O)CCCCCN [Deferoxamine] (100 nM) — higher, 103%
- C[C@]12CC[C@@H]3c4ccc(OC(=O)N(CCCl)CCCl)cc4CC[C@H]3[C@@H]1CC[C@@H]2O [Estramustine] (100 nM) — higher, 100%
- CC1(C)CNc2cc(NC(=O)c3cccnc3NCc3ccncc3)ccc21 [Motesanib] (100 nM) — lower, 95.2%
- CC(=O)c1c(C)c2cnc(Nc3ccc(N4CCNCC4)cn3)nc2n(C2CCCC2)c1=O [Palbociclib] (100 nM) — lower, 98.7%
- COc1cc(F)c(F)c(Nc2ccc(I)cc2F)c1NS(=O)(=O)C1(C[C@H](O)CO)CC1 [Refametinib] (100 nM) — lower, 92.4%

Test system: MDA-MB-453
Test: as above
Conditions: incubation time: 72 h
Outline: as §1

Point of comparison: `CC(=O)c1c(C)c2cnc(Nc3ccc(N4CCNCC4)cn3)nc2n(C2CCCC2)c1=O` [Palbociclib] (100 nM), normalised response 107%. Against it:
- Cc1sc2c(c1C)C(c1ccc(Cl)cc1)=N[C@@H](CC(=O)OC(C)(C)C)c1nnc(C)n1-2 [(+)JQ1] (100 nM) — higher, 108%
- Oc1ncnc2[nH]ncc12 [Allopurinol] (100 nM) — lower, 102%
- CC1=C2C[C@H]3[C@@H](CC=C4C[C@@H](O)CC[C@@]43C)[C@@H]2CC[C@]12O[C@@H]1C[C@H](C)CN[C@H]1[C@H]2C [Cyclopamine] (100 nM) — lower, 97.4%
- CC(=O)N(O)CCCCCNC(=O)CCC(=O)N(O)CCCCCNC(=O)CCC(=O)N(O)CCCCCN [Deferoxamine] (100 nM) — lower, 102%
- C[C@]12CC[C@@H]3c4ccc(OC(=O)N(CCCl)CCCl)cc4CC[C@H]3[C@@H]1CC[C@@H]2O [Estramustine] (100 nM) — lower, 103%
- CC1(C)CNc2cc(NC(=O)c3cccnc3NCc3ccncc3)ccc21 [Motesanib] (100 nM) — lower, 105%
- CC[C@@H]1C(=O)OC[C@@H]1Cc1cncn1C [Pilocarpine] (400 nM) — lower, 93.6%
- COc1cc(F)c(F)c(Nc2ccc(I)cc2F)c1NS(=O)(=O)C1(C[C@H](O)CO)CC1 [Refametinib] (100 nM) — lower, 101%

Test system: BT-474
Test: as above
Conditions: incubation time: 72 h
Outline: as §1

Point of comparison: `C[C@]12CC[C@@H]3c4ccc(OC(=O)N(CCCl)CCCl)cc4CC[C@H]3[C@@H]1CC[C@@H]2O` [Estramustine] (100 nM), normalised response 95.8%. Against it:
- Cc1sc2c(c1C)C(c1ccc(Cl)cc1)=N[C@@H](CC(=O)OC(C)(C)C)c1nnc(C)n1-2 [(+)JQ1] (100 nM) — lower, 79%
- Oc1ncnc2[nH]ncc12 [Allopurinol] (100 nM) — higher, 98.1%
- CC1=C2C[C@H]3[C@@H](CC=C4C[C@@H](O)CC[C@@]43C)[C@@H]2CC[C@]12O[C@@H]1C[C@H](C)CN[C@H]1[C@H]2C [Cyclopamine] (100 nM) — higher, 101%
- CC(=O)N(O)CCCCCNC(=O)CCC(=O)N(O)CCCCCNC(=O)CCC(=O)N(O)CCCCCN [Deferoxamine] (100 nM) — lower, 94.5%
- CC1(C)CNc2cc(NC(=O)c3cccnc3NCc3ccncc3)ccc21 [Motesanib] (100 nM) — higher, 99%
- CC(=O)c1c(C)c2cnc(Nc3ccc(N4CCNCC4)cn3)nc2n(C2CCCC2)c1=O [Palbociclib] (100 nM) — higher, 99.6%
- CC[C@@H]1C(=O)OC[C@@H]1Cc1cncn1C [Pilocarpine] (400 nM) — higher, 98.4%
- COc1cc(F)c(F)c(Nc2ccc(I)cc2F)c1NS(=O)(=O)C1(C[C@H](O)CO)CC1 [Refametinib] (100 nM) — higher, 97.4%

Test system: DU-4475
Test: as above
Conditions: incubation time: 72 h
Outline: as §1

Point of comparison: `COc1cc(F)c(F)c(Nc2ccc(I)cc2F)c1NS(=O)(=O)C1(C[C@H](O)CO)CC1` [Refametinib] (100 nM), normalised response 84%. Against it:
- Cc1sc2c(c1C)C(c1ccc(Cl)cc1)=N[C@@H](CC(=O)OC(C)(C)C)c1nnc(C)n1-2 [(+)JQ1] (100 nM) — higher, 101%
- Oc1ncnc2[nH]ncc12 [Allopurinol] (100 nM) — higher, 101%
- CC1=C2C[C@H]3[C@@H](CC=C4C[C@@H](O)CC[C@@]43C)[C@@H]2CC[C@]12O[C@@H]1C[C@H](C)CN[C@H]1[C@H]2C [Cyclopamine] (100 nM) — higher, 102%
- CC(=O)N(O)CCCCCNC(=O)CCC(=O)N(O)CCCCCNC(=O)CCC(=O)N(O)CCCCCN [Deferoxamine] (100 nM) — higher, 98.1%
- C[C@]12CC[C@@H]3c4ccc(OC(=O)N(CCCl)CCCl)cc4CC[C@H]3[C@@H]1CC[C@@H]2O [Estramustine] (100 nM) — higher, 96.8%
- CC1(C)CNc2cc(NC(=O)c3cccnc3NCc3ccncc3)ccc21 [Motesanib] (100 nM) — higher, 97.9%
- CC(=O)c1c(C)c2cnc(Nc3ccc(N4CCNCC4)cn3)nc2n(C2CCCC2)c1=O [Palbociclib] (100 nM) — higher, 98.8%
- CC[C@@H]1C(=O)OC[C@@H]1Cc1cncn1C [Pilocarpine] (400 nM) — higher, 95.8%

Test system: CAL-85-1
Test: as above
Conditions: incubation time: 72 h
Outline: as §1

Point of comparison: `CC(=O)N(O)CCCCCNC(=O)CCC(=O)N(O)CCCCCNC(=O)CCC(=O)N(O)CCCCCN` [Deferoxamine] (100 nM), normalised response 104%. Against it:
- Cc1sc2c(c1C)C(c1ccc(Cl)cc1)=N[C@@H](CC(=O)OC(C)(C)C)c1nnc(C)n1-2 [(+)JQ1] (100 nM) — lower, 83.9%
- Oc1ncnc2[nH]ncc12 [Allopurinol] (100 nM) — higher, 109%
- CC1=C2C[C@H]3[C@@H](CC=C4C[C@@H](O)CC[C@@]43C)[C@@H]2CC[C@]12O[C@@H]1C[C@H](C)CN[C@H]1[C@H]2C [Cyclopamine] (100 nM) — lower, 94.5%
- C[C@]12CC[C@@H]3c4ccc(OC(=O)N(CCCl)CCCl)cc4CC[C@H]3[C@@H]1CC[C@@H]2O [Estramustine] (100 nM) — lower, 95.6%
- CC1(C)CNc2cc(NC(=O)c3cccnc3NCc3ccncc3)ccc21 [Motesanib] (100 nM) — higher, 110%
- CC(=O)c1c(C)c2cnc(Nc3ccc(N4CCNCC4)cn3)nc2n(C2CCCC2)c1=O [Palbociclib] (100 nM) — lower, 102%
- CC[C@@H]1C(=O)OC[C@@H]1Cc1cncn1C [Pilocarpine] (400 nM) — higher, 110%
- COc1cc(F)c(F)c(Nc2ccc(I)cc2F)c1NS(=O)(=O)C1(C[C@H](O)CO)CC1 [Refametinib] (100 nM) — lower, 86.7%
